Data: patent US11590158B2, “Pharmaceutical compositions of lipoic acid choline ester salts and methods of treatment using same” (Novartis AG, priority 2020, dated 2023)
Entries after “also recorded” stand apart in the source; their conditions may differ. Where a name gives a salt, the structure may show the parent alone. Read-outs that look alike come from different tables or passages of the source.

Experiments:
[1] = test system: Staphylococcus aureus, Pseudomonas aeruginosa, Escherichia coli, Candida albicans, and Aspergillus brasiliensis; assay: Preservative efficacy test, overall outcome against USP criteria; assay type: cell-based; conditions: formulations with cyclodextrin
Procedure: The testing was carried out using the following procedure: Five different challenge organisms were evaluated (Staphylococcus aureus, Pseudomonas aeruginosa, Escherichia coli, Candida albicans, and Aspergillus brasiliensis) were evaluated for each test formulation, and inoculated to a concentration of 10^6 colony forming units per ml (CFU/ml). The microbial suspension was incubated and sampled at 7, 14, 21, and 28 days. At the time of sampling, a sample was diluted 10-fold into tryptase soy broth medium, and 100 μl plated in growth agar plates to count survivors. The survivor count was used to determine log reduction. The preservative efficacy test criteria for multidose pharmaceutical compositions under US Pharmacopoeia standards are as follows. [table]

[2] = Hygroscopicity (exposure to RH, DVS); assay type: physicochemical; conditions: for Hygroscopicity / Hygroscopicity, water uptake: DVS; for Hygroscopicity: >70% RH; for Hygroscopicity, water uptake: until 70% RH
[3] = Hygroscopicity (exposure to RH, DVS); assay type: physicochemical; conditions: for Hygroscopicity: solid salt, ambient conditions; for Hygroscopicity upon exposure: 58% RH for one day
Description: It is deliquescent upon exposure to 58% RH for one day. In DVS measurement, LACE chloride absorbs 18.6% moisture from 0% RH to 50% RH. The DVS isotherm is irreversible. It is amorphous at ambient but crystalline under 0% RH by Cryo-XRPD.

[4] = Stability in organic solutions or suspensions; assay type: physicochemical; conditions: 40° C. for 1 week
Photostability = assay type: physicochemical
[5] = Stability in aqueous solutions or suspensions; assay type: physicochemical
Description: At pH 4.7 buffer solution about 4% degradation is observed.

[6] = Equilibration of LACE chloride in solvents (solubility test); assay type: physicochemical; conditions: 100 mg in 1 mL, 25° C. for 7 days
Description: The mixture was equilibrated for 7 days, with visual observations at days 1, 2, and 7. If a slurry resulted, it was filtered and clear solutions were either cooled or evaporated.

[7] = 1 week
Procedure: (§1) LACE salts were dissolved in each of the following excipients: 0.01% benzalkonium chloride, 20 mM acetate buffer, 20 mM citrate buffer, 1% Na-carboxymethyl cellulose, 1% hydroxypropylmethyl cellulose and 0.01% Na-ethylene diamine tetraacetic acid.

rabbit eye = assay: Acute rabbit ocular tolerability study; assay type: in vivo; conditions: rabbit left eye dosed 6 times, one drop about 30 microliter, about 1 hour apart
Procedure: A number of excipients were explored to determine which excipients would reduce the formation of associative species. Acute rabbit ocular tolerability studies were performed to test the ocular tolerability of LACE tosylate with various excipients. The study design involved three male rabbits per arm. The rabbits' left eye was dosed 6 times with one drop each time, about 1 hour apart, administering about 30 microliter per drop. The right eye was not dosed and served as a control.

[8] = 5% solutions in aqueous excipients (0.01% BAC, 20 mM acetate, 20 mM citrate, 1% Na-CMC, 1% HPMC, 0.01% Na-EDTA), 40° C. for 2 weeks
[9] = same excipients, 40° C. for 2 weeks
[10] = same excipients, 40° C./75% RH for 2 weeks
[11] = other solvents (EtOAC, acetone, IPA and THF)
[12] = pH 4.7 buffer solution, 40° C. for 1 week

Procedure for Excipient compatibility: as §1

N=C(N)NC(=N)N [Biguanide]
efficacy as a preservative in LACE tosylate formulations [1]: not found to be efficacious

C[N+](C)(C)CCOC(=O)CCCCC1CCSS1.Cc1ccc(S(=O)(=O)[O-])cc1 (stereo not shown) [Form A, lipoic acid choline ester tosylate]
Hygroscopicity [2]: deliquescent >70% RH
Hygroscopicity, water uptake [2]: 0.64% water uptake until

C[N+](C)(C)CCOC(=O)CCCCC1CCSS1.Cc1ccc(S(=O)(=O)[O-])cc1 (stereo not shown) [Form B, lipoic acid choline ester tosylate]
Hygroscopicity [2]: deliquescent >70% RH
Hygroscopicity, water uptake [2]: 0.55% water uptake until

C[N+](C)(C)CCOC(=O)CCCCC1CCSS1.[Br-] (stereo not shown) [LACE bromide]
Hygroscopicity [3]: hygroscopic

C[N+](C)(C)CCOC(=O)CCCC[C@@H]1CCSS1.[Cl-] [LACE-Cl, lipoic acid choline ester chloride]
degradation (Excipient compatibility; [8]): about 5%
degradation (Excipient compatibility; in Na-CMC, alanine and histidine, 25° C. for 1 week): 2-3%
degradation (Excipient compatibility; [9]): higher degradation
degradation (Excipient compatibility; [10]): high-severe degradation
degradation (Excipient compatibility; with HPMC, 25° C. for 1 week): ~8%
degradation (Excipient compatibility; with HPβCD, 25° C. for 1 week): 3.35%
degradation ([4]; methanol and ethanol): complete degradation
degradation [4, 11]: severe degradation
photostability, degradation (Photostability; amber vial): ~5%
photostability, physical form (Photostability; amber vial): becomes sticky
photostability, degradation (Photostability; clear vial): severe degradation and color change
photostability, physical form (Photostability; clear vial): becomes sticky
degradation (Solid state stability; 40° C. 75% RH for 1 week): approximately 7%
physical form (Solid state stability; 40° C. 75% RH for 1 week): becomes sticky mass
degradation (Solid state stability; 40° C. for 1 week): approximately 7%
solid state stability / physical form (Solid state stability; 40° C. for 1 week): becomes sticky mass
behaviour on handling / exposure at ambient conditions (Solid state stability): not suitable for handling under normal conditions
degradation [5, 12]: about 4%
Comments (equilibration in solvent) ([6]; 2-Me-THF): sticky solid
Comments (equilibration in solvent) ([6]; 2 Methyl 2 butanone): Clear solution after 7 days
Comments (equilibration in solvent) ([6]; ACN): Clear solution after 7 days
Comments (equilibration in solvent) ([6]; Acetic acid): almost dissolved
Comments (equilibration in solvent) ([6]; Acetone): initial suspension, with particles stuck on wall
Comments (equilibration in solvent) ([6]; Anisole): sticky solid
Comments (equilibration in solvent) ([6]; Benzyl alcohol): Clear solution after 7 days
Comments (equilibration in solvent) ([6]; Chloroform): clear solution that yielded an oil after
Comments (equilibration in solvent) ([6]; Cumene): undissolved solid after 7 days
Comments (equilibration in solvent) ([6]; Cyclohexane): undissolved solid after 7 days
Comments (equilibration in solvent) ([6]; DCM): Clear solution after 7 days
Comments (equilibration in solvent) ([6]; Diethyl ether): undissolved solid after 7 days
Comments (equilibration in solvent) ([6]; Dioxane): initial suspension, with particles stuck on wall
Comments (equilibration in solvent) ([6]; EtOAc): suspension
Comments (equilibration in solvent) ([6]; EtOH): Clear solution after 7 days
Comments (equilibration in solvent) ([6]; Ethyl formate): suspension
Comments (equilibration in solvent) ([6]; IPAc): undissolved solid after 7 days
Comments (equilibration in solvent) ([6]; MEK): initial suspension, with particles stuck on wall
Comments (equilibration in solvent) ([6]; MTBE): initial suspension, with particles stuck on wall
Comments (equilibration in solvent) ([6]; MeOH): Clear solution after 7 days
Comments (equilibration in solvent) ([6]; Nitromethane): Clear solution after 7 days
Comments (equilibration in solvent) ([6]; Petroleum ether): undissolved solid after 7 days
Comments (equilibration in solvent) ([6]; Propylene glycol): Clear solution after 7 days
Comments (equilibration in solvent) ([6]; Pyridine): almost dissolved
Comments (equilibration in solvent) ([6]; THF): initial suspension turning sticky
Comments (equilibration in solvent) ([6]; Toluene): sticky solid
Comments (equilibration in solvent) ([6]; Water): Clear solution after 7 days
Comments (equilibration in solvent) ([6]; Xylene): undissolved solid after 7 days
Hygroscopicity upon exposure [3]: deliquescent
moisture absorbed in DVS ([3]; from 0% RH to 50% RH): 18.6%
Hygroscopicity [3]: highly hygroscopic

C[N+](C)(C)CCOC(=O)CCCCC1CCSS1.[I-] (stereo not shown) [LACE-I, lipoic acid choline ester iodide]
degradation (Excipient compatibility; [8]): about 5%
degradation (Excipient compatibility; [9]): higher degradation
degradation (Excipient compatibility; [10]): high-severe degradation
degradation ([4]; methanol and ethanol): complete degradation
degradation [4, 11]: severe degradation
photostability (Photostability; amber vial): stable
photostability, physical form (Photostability; amber vial): remains the same
photostability, degradation (Photostability; clear vial): severe degradation and color change
photostability, physical form (Photostability; clear vial): remains unchanged
physical form (Solid state stability; 40° C. 75% RH for 1 week): form remains the same
solid state stability / physical form (Solid state stability; 40° C. for 1 week): stable
behaviour on handling / exposure at ambient conditions (Solid state stability): changes color; also recorded: discoloration and possibly slow degradation
degradation [5, 12]: about 4%
Hygroscopicity upon exposure [3]: non-hygroscopic
Hygroscopicity by DVS ([3]; DVS): non-hygroscopic

C[N+](C)(C)CCOC(=O)CCCCC1CCSS1 (stereo not shown) [LACE-OBs, lipoic acid choline ester besylate]
Hygroscopicity upon exposure ([2]; 58% RH up to 6 hours): non hygroscopic
Hygroscopicity by DVS ([2]; DVS from 50% RH to 90% RH): deliquescent
degradation ([4]; methanol and ethanol): complete degradation
degradation [4, 11]: severe degradation
photostability (Photostability; amber vial): stable
photostability, physical form (Photostability; amber vial): remains the same
photostability, degradation (Photostability; clear vial): severe degradation and color change
photostability, physical form (Photostability; clear vial): decrease in crystallinity
physical form (Solid state stability; 40° C. 75% RH for 1 week): become sticky
solid state stability / physical form (Solid state stability; 40° C. for 1 week): stable
degradation ([5]; 1 week): 10-99%
degradation ([5]; 1 week, pH 4.7): about 4%
degradation [7]: < 2%
Hygroscopicity upon exposure [3]: deliquescent
Hygroscopicity [3]: hygroscopic

C[N+](C)(C)CCOC(=O)CCCCC1CCSS1 (stereo not shown) [LACE-OTs, lipoic acid choline ester tosylate]
moisture absorbed in DVS ([2]; up to 60% RH): less than 2%
degradation ([4]; methanol and ethanol): complete degradation
degradation [4, 11]: severe degradation
photostability (Photostability; amber vial): stable
photostability, physical form (Photostability; amber vial): remains the same
photostability, degradation (Photostability; clear vial): severe degradation and color change
photostability, physical form (Photostability; clear vial): some amorphous content
physical form (Solid state stability; 40° C. 75% RH for 1 week): become sticky
solid state stability / physical form (Solid state stability; 40° C. for 1 week): stable
behaviour on handling / exposure at ambient conditions (Solid state stability): without any degradation
degradation [7]: < 2%
degradation ([7]; 5 %): 1-3%
Hygroscopicity upon exposure [3]: non-hygroscopic

CC(O)CO (stereo not shown) [Propylene Glycol]
Tolerated (rabbit eye): No

lipoic acid choline ester besylate [LACE-OBs]
behaviour on handling / exposure at ambient conditions (Solid state stability): without any degradation
